Experimental data published in patent US9730938B2, “Bruton's tyrosine kinase inhibitor combinations and uses thereof” (Pharmacyclics LLC, priority 2014, dated 2017).

Legend:
Type in all cases: cell-based
[1] = test system: Jeko cells; test: 3-day CellTiter Glow combination study in Jeko cells with wild-type or mutant CARD11; details: FIG. 6
Method: (§1) Jeko cells, a MCL cell line, and OCI-Ly3, a DLBCL cell line, were used for this experiment.
(§2) In summary, 10,000 cells were plated into 96-well plates and treated with different concentrations of inhibitors. 3 days later, CellTiter Glow reagent was added into the wells and the luminescent signals were measured.

[2] = test system: OCI-Ly3 cells; test: 3-day CellTiter Glow combination study in OCI-Ly3 cells; details: in combination with ibrutinib; FIG. 7
Method: as §1, §2

[3] = test system: TMD8; test: Combined drug treatment cell viability, CellTiter-Glo assay (Example 1); details: 3 days
Method: (§3) DLBCL cells at either 1×10^4 cells or 2×10^4 cells were plated onto each well of a 96-W plate (Table 1).
(§4) The stock solutions for the IDH1 inhibitor AGI5198 and the MALT1 inhibitor MI-2 were each prepared at 50 mM concentration.
(§5) The 96-W plate was then incubated for 3 days. Cell viability was examined using a CellTiter-Glo assay.
(§6) A 40 μL of CellTiter-Glo reagent was added directly into each well of the 96-W plate. The plate was then shaken on a Shaker (Labsystem Wellmix) at speed 5 for 10-20 min at room temperature. Next, 100 μL of the mixed medium was transferred to a white, non-transparent, flat bottom 96-W plate for assaying. A Flexstation 3 luminometer was used for detecting and measuring the luminescent signals. Measurements were taken at room temperature.
(§7) In general, the combination is described as synergistic (CI<1), additive (CI=1), or antagonistic (CI>1). Synergism is further separated into very strong synergism (<0.1), strong synergism (0.1-0.3), synergism (0.3-0.7), moderate synergism (0.7-0.85), and slight synergism (0.85-0.9).

[4] = test system: SU-DHL-2; test: as above; details: 3 days
Method: as §3, §4, §5, §6, §7

[5] = test system: OCI-LY-3; test: as above; details: 3 days
Method: as §3, §4, §5, §6, §7

[6] = test system: OCI-LY-10; test: as above; details: 3 days
Method: as §3, §4, §5, §6, §7

[7] = test system: U2932; test: as above; details: 3 days
Method: as §3, §4, §5, §6, §7

[8] = test system: CARD11 / NF-κB pathway; test: Western blot analysis, Jeko cells containing CARD11 L225LI (mut10); details: FIG. 8
Method: The cell lysates were prepared from the cells which were treated with different concentrations of inhibitors for overnight incubation. Antibodies that correlate to the proteins of interest were used for detection.

[9] = ibrutinib 0 nM, IDH1i 10 uM / MALT1i 200 nM alone
[10] = ibrutinib 0.0256 nM, IDH1i 10 uM / MALT1i 200 nM / medium alone
[11] = ibrutinib 0.128 nM, IDH1i 10 uM / MALT1i 200 nM / medium alone
[12] = ibrutinib 0.64 nM, IDH1i 10 uM / MALT1i 200 nM / medium alone
[13] = ibrutinib 3.2 nM, IDH1i 10 uM / MALT1i 200 nM / medium alone
[14] = ibrutinib 16 nM, IDH1i 10 uM / MALT1i 200 nM / medium alone
[15] = ibrutinib 80 nM, IDH1i 10 uM / MALT1i 200 nM / medium alone
[16] = ibrutinib 400 nM, IDH1i 10 uM / MALT1i 200 nM / medium alone
[17] = ibrutinib 2000 nM, IDH1i 10 uM / MALT1i 200 nM / medium alone
[18] = ibrutinib 10000 nM, IDH1i 10 uM / MALT1i 200 nM / medium alone
[19] = ibrutinib 0 nM, IDH1i 10 uM / MALT1i 5 uM alone
[20] = ibrutinib 0.0256 nM, IDH1i 10 uM / MALT1i 5 uM / medium alone
[21] = ibrutinib 0.128 nM, IDH1i 10 uM / MALT1i 5 uM / medium alone
[22] = ibrutinib 0.64 nM, IDH1i 10 uM / MALT1i 5 uM / medium alone
[23] = ibrutinib 3.2 nM, IDH1i 10 uM / MALT1i 5 uM / medium alone
[24] = ibrutinib 16 nM, IDH1i 10 uM / MALT1i 5 uM / medium alone
[25] = ibrutinib 80 nM, IDH1i 10 uM / MALT1i 5 uM / medium alone
[26] = ibrutinib 400 nM, IDH1i 10 uM / MALT1i 5 uM / medium alone
[27] = ibrutinib 2000 nM, IDH1i 10 uM / MALT1i 5 uM / medium alone
[28] = ibrutinib 10000 nM, IDH1i 10 uM / MALT1i 5 uM / medium alone

CC(C)C[C@H](NC(=O)[C@H](CCc1ccccc1)NC(=O)CN1CCOCC1)C(=O)N[C@@H](Cc1ccccc1)C(=O)N[C@@H](CC(C)C)C(=O)[C@@]1(C)CO1 [Carfilzomib]
sensitization of Jeko cells containing the mutant CARD11 to ibrutinib treatment [1]: sensitized
sensitization of OCI-Ly3 cells [2]: sensitized

COCCOc1nc(-c2ccc(Cl)c(Cl)c2)n(-c2ccc(NC(=O)CCl)cc2)n1 [MI-2]
sensitization of Jeko cells containing the mutant CARD11 to ibrutinib treatment [1]: sensitized
luminescence (CellTiter-Glo) ([3]; ibrutinib 0 nM, IDH1i 10 uM / MALT1i 100 nM alone): 71955.73
luminescence (CellTiter-Glo) ([3]; ibrutinib 0.0256 nM, IDH1i 10 uM / MALT1i 100 nM / medium alone): 26784.40
luminescence (CellTiter-Glo) ([3]; ibrutinib 0.128 nM, IDH1i 10 uM / MALT1i 100 nM / medium alone): 23958.89
luminescence (CellTiter-Glo) ([3]; ibrutinib 0.64 nM, IDH1i 10 uM / MALT1i 100 nM / medium alone): 25405.91
luminescence (CellTiter-Glo) ([3]; ibrutinib 3.2 nM, IDH1i 10 uM / MALT1i 100 nM / medium alone): 24014.24
luminescence (CellTiter-Glo) ([3]; ibrutinib 16 nM, IDH1i 10 uM / MALT1i 100 nM / medium alone): 22888.78
luminescence (CellTiter-Glo) ([3]; ibrutinib 80 nM, IDH1i 10 uM / MALT1i 100 nM / medium alone): 22045.34
luminescence (CellTiter-Glo) ([3]; ibrutinib 400 nM, IDH1i 10 uM / MALT1i 100 nM / medium alone): 21591.99
luminescence (CellTiter-Glo) ([3]; ibrutinib 2000 nM, IDH1i 10 uM / MALT1i 100 nM / medium alone): 21278.34
luminescence (CellTiter-Glo) ([3]; ibrutinib 10000 nM, IDH1i 10 uM / MALT1i 100 nM / medium alone): 9754.88
luminescence (CellTiter-Glo) [4, 9]: 131429.7
luminescence (CellTiter-Glo) [4, 10]: 127667.9
luminescence (CellTiter-Glo) [4, 11]: 145168.7
luminescence (CellTiter-Glo) [4, 12]: 148058.4
luminescence (CellTiter-Glo) [4, 13]: 156036.5
luminescence (CellTiter-Glo) [4, 14]: 153735.3
luminescence (CellTiter-Glo) [4, 15]: 154662.6
luminescence (CellTiter-Glo) [4, 16]: 152400.8
luminescence (CellTiter-Glo) [4, 17]: 151552.3
luminescence (CellTiter-Glo) [4, 18]: 61725.8
luminescence (CellTiter-Glo) [5, 19]: 23290.74
luminescence (CellTiter-Glo) [5, 20]: 25371.59
luminescence (CellTiter-Glo) [5, 21]: 26368.71
luminescence (CellTiter-Glo) [5, 22]: 24778.56
luminescence (CellTiter-Glo) [5, 23]: 26610.12
luminescence (CellTiter-Glo) [5, 24]: 27654.48
luminescence (CellTiter-Glo) [5, 25]: 27617.74
luminescence (CellTiter-Glo) [5, 26]: 25227.27
luminescence (CellTiter-Glo) [5, 27]: 26843.66
luminescence (CellTiter-Glo) [5, 28]: 23784.06
luminescence (CellTiter-Glo) [6, 19]: 19317.19
luminescence (CellTiter-Glo) [6, 20]: 21817.96
luminescence (CellTiter-Glo) [6, 21]: 17802.53
luminescence (CellTiter-Glo) [6, 22]: 16971.57
luminescence (CellTiter-Glo) [6, 23]: 13413.69
luminescence (CellTiter-Glo) [6, 24]: 7749.49
luminescence (CellTiter-Glo) [6, 25]: 9592.85
luminescence (CellTiter-Glo) [6, 26]: 9064.30
luminescence (CellTiter-Glo) [6, 27]: 10110.89
luminescence (CellTiter-Glo) [6, 28]: 9734.85
luminescence (CellTiter-Glo) [7, 9]: 54720.82
luminescence (CellTiter-Glo) [7, 10]: 48183.41
luminescence (CellTiter-Glo) [7, 11]: 46995.03
luminescence (CellTiter-Glo) [7, 12]: 49419.22
luminescence (CellTiter-Glo) [7, 13]: 48821.08
luminescence (CellTiter-Glo) [7, 14]: 44565.57
luminescence (CellTiter-Glo) [7, 15]: 47234.82
luminescence (CellTiter-Glo) [7, 16]: 41263.93
luminescence (CellTiter-Glo) [7, 17]: 45695.98
luminescence (CellTiter-Glo) [7, 18]: 31838.57
effect on NF-κB pathway together with ibrutinib [8]: in some instances synergize with ibrutinib to inhibit the NF-κB pathway
effect on CARD11 protein ([8]; overnight incubation): cause degradation of CARD11
